Assay results: ChEMBL document CHEMBL2151017, “Inhibition of α-glucosidase and α-amylase by diaryl derivatives of imidazole-thione and 1,2,4-triazole-thiol” (Eur J Med Chem, 2011)
Active and inactive are the calls of the source. The calls are words filed in the database; no cut-off is given here.

Experiments:
[1] = Toxicity in po dosed Spanish V-line rabbit assessed as mortality after 24 hrs; assay type: organism-based, Oryctolagus cuniculus; settings: in vivo
[2] = system: Oryctolagus cuniculus; assay: In vivo inhibition of Spanish V-line rabbit liver alpha-glucosidase assessed as specific enzyme activity per mg protein using maltose as substrate at 10% LD50, po after 8 hrs; assay type: functional
[3] = system: Oryctolagus cuniculus; assay: In vivo inhibition of Spanish V-line rabbit liver alpha-glucosidase assessed as specific enzyme activity per mg protein using maltose as substrate at 10% LD50, po after 16 hrs; assay type: functional
[4] = system: Oryctolagus cuniculus; assay: In vivo inhibition of Spanish V-line rabbit liver alpha-glucosidase assessed as specific enzyme activity per mg protein using maltose as substrate at 10% LD50, po after 24 hrs; assay type: functional
[5] = system: Oryctolagus cuniculus; assay: In vivo inhibition of Spanish V-line rabbit liver alpha-glucosidase assessed as specific enzyme activity per mg protein using maltose as substrate at 10% LD50, po after 48 hrs; assay type: functional
[6] = system: Oryctolagus cuniculus; assay: In vivo inhibition of Spanish V-line rabbit liver alpha-glucosidase assessed as specific enzyme activity per mg protein using maltose as substrate at 10% LD50, po after 72 hrs; assay type: functional
[7] = system: Oryctolagus cuniculus; assay: In vivo inhibition of Spanish V-line rabbit liver alpha-glucosidase assessed as specific enzyme activity per mg protein using maltose as substrate at 10% LD50, po after 96 hrs; assay type: functional
[8] = system: Oryctolagus cuniculus; assay: In vivo inhibition of Spanish V-line rabbit liver alpha-amylase assessed as specific enzyme activity per mg protein using starch as substrate at 10% LD50, po after 8 hrs; assay type: functional
[9] = system: Oryctolagus cuniculus; assay: In vivo inhibition of Spanish V-line rabbit liver alpha-amylase assessed as specific enzyme activity per mg protein using starch as substrate at 10% LD50, po after 16 hrs; assay type: functional
[10] = system: Oryctolagus cuniculus; assay: In vivo inhibition of Spanish V-line rabbit liver alpha-amylase assessed as specific enzyme activity per mg protein using starch as substrate at 10% LD50, po after 24 hrs; assay type: functional
[11] = system: Oryctolagus cuniculus; assay: In vivo inhibition of Spanish V-line rabbit liver alpha-amylase assessed as specific enzyme activity per mg protein using starch as substrate at 10% LD50, po after 48 hrs; assay type: functional
[12] = system: Oryctolagus cuniculus; assay: In vivo inhibition of Spanish V-line rabbit liver alpha-amylase assessed as specific enzyme activity per mg protein using starch as substrate at 10% LD50, po after 72 hrs; assay type: functional
[13] = system: Oryctolagus cuniculus; assay: In vivo inhibition of Spanish V-line rabbit liver alpha-amylase assessed as specific enzyme activity per mg protein using starch as substrate at 10% LD50, po after 96 hrs; assay type: functional
[14] = system: Oryctolagus cuniculus; assay: In vivo inhibition of Spanish V-line rabbit liver alpha-amylase assessed as specific enzyme activity per mg protein using starch as substrate at 10% LD50, po after 120 hrs; assay type: functional
[15] = system: Oryctolagus cuniculus; assay: In vivo inhibition of Spanish V-line rabbit alpha-glucosidase using maltose as substrate at 25% LD50, po after 24 hrs relative to control; assay type: functional
[16] = system: Oryctolagus cuniculus; assay: In vivo inhibition of Spanish V-line rabbit liver alpha-glucosidase assessed as specific enzyme activity per mg protein using maltose as substrate at 10% LD50, po after 120 hrs; assay type: functional
[17] = system: Oryctolagus cuniculus; assay: In vivo inhibition of alpha-glucosidase in po dosed Spanish V-line rabbit using maltose as substrate after 24 hrs; assay type: functional, organism-based
[18] = system: Oryctolagus cuniculus; assay: In vivo inhibition of alpha-amylase in po dosed Spanish V-line rabbit using starch as substrate at after 24 hrs; assay type: functional, organism-based
[19] = system: Oryctolagus cuniculus; assay: In vivo inhibition of Spanish V-line rabbit alpha-amylase using starch as substrate at 25% LD50, po after 24 hrs relative to control; assay type: functional
[20] = Inhibition of Spanish V-line rabbit liver alpha-glucosidase using maltose as substrate after 5 mins by spectrophotometry; design: species or system Oryctolagus cuniculus
[21] = organism: Oryctolagus cuniculus; assay: Inhibition of Spanish V-line rabbit liver alpha-glucosidase using maltose as substrate assessed per mg protein at 12 uM by Lineweaver-Burk plot ( RVb = 55 +/- 5.2 10^-3 uM/min/mg protein )
[22] = Inhibition of Spanish V-line rabbit liver alpha-amylase using starch as substrate after 5 mins by spectrophotometry; design: species or system Oryctolagus cuniculus
[23] = organism: Oryctolagus cuniculus; assay: Reversible Inhibition of Spanish V-line rabbit liver alpha-glucosidase using maltose as substrate compound preincubated for 60 mins by dialysis method
[24] = organism: Oryctolagus cuniculus; assay: Reversible Inhibition of Spanish V-line rabbit liver alpha-amylase using starch as substrate compound preincubated for 60 mins by dialysis method
[25] = organism: Oryctolagus cuniculus; assay: Inhibition of Spanish V-line rabbit liver alpha-glucosidase using maltose as substrate assessed per mg protein at 24 uM by Lineweaver-Burk plot ( RVb = 55 +/- 5.2 10^-3 uM/min/mg protein )
[26] = organism: Oryctolagus cuniculus; assay: Inhibition of Spanish V-line rabbit liver alpha-glucosidase using maltose as substrate assessed per mg protein at 36 uM by Lineweaver-Burk plot ( RVb = 55 +/- 5.2 10^-3 uM/min/mg protein )
[27] = organism: Oryctolagus cuniculus; assay: Inhibition of Spanish V-line rabbit liver alpha-glucosidase using maltose as substrate assessed per mg protein at 48 uM by Lineweaver-Burk plot ( RVb = 55 +/- 5.2 10^-3 uM/min/mg protein )
[28] = organism: Oryctolagus cuniculus; assay: Inhibition of Spanish V-line rabbit liver alpha-amylase using starch as substrate assessed per mg protein at 12 uM by Lineweaver-Burk plot ( RVb = 9.0 +/- 0.8 10^-3 uM/min/mg protein )
[29] = organism: Oryctolagus cuniculus; assay: Inhibition of Spanish V-line rabbit liver alpha-amylase using starch as substrate assessed per mg protein at 24 uM by Lineweaver-Burk plot ( RVb = 9.0 +/- 0.8 10^-3 uM/min/mg protein )
[30] = organism: Oryctolagus cuniculus; assay: Inhibition of Spanish V-line rabbit liver alpha-amylase using starch as substrate assessed per mg protein at 36 uM by Lineweaver-Burk plot ( RVb = 9.0 +/- 0.8 10^-3 uM/min/mg protein )
[31] = organism: Oryctolagus cuniculus; assay: Inhibition of Spanish V-line rabbit liver alpha-amylase using starch as substrate assessed per mg protein at 48 uM by Lineweaver-Burk plot ( RVb = 9.0 +/- 0.8 10^-3 uM/min/mg protein )
[32] = Non-competitive inhibition of Spanish V-line rabbit liver alpha-glucosidase using maltose as substrate by Dixon plot analysis; design: species or system Oryctolagus cuniculus
[33] = Non-competitive inhibition of Spanish V-line rabbit liver alpha-glucosidase using maltose as substrate by Lineweaver-Burk plot analysis; design: species or system Oryctolagus cuniculus
[34] = Non-competitive inhibition of Spanish V-line rabbit liver alpha-amylase using starch as substrate by Lineweaver-Burk plot analysis; design: species or system Oryctolagus cuniculus
[35] = Non-competitive inhibition of Spanish V-line rabbit liver alpha-amylase using starch as substrate by Dixon plot analysis; design: species or system Oryctolagus cuniculus
[36] = organism: Oryctolagus cuniculus; assay: Non-competitive inhibition of Spanish V-line rabbit liver alpha-glucosidase using maltose as substrate
[37] = organism: Oryctolagus cuniculus; assay: Non-competitive inhibition of Spanish V-line rabbit liver alpha-amylase using starch as substrate
[38] = organism: Oryctolagus cuniculus; assay: Inhibition of Spanish V-line rabbit liver alpha-amylase using starch as substrate assessed per mg protein at 16 uM by Lineweaver-Burk plot ( RVb = 9.0 +/- 0.8 10^-3 uM/min/mg protein )
[39] = organism: Oryctolagus cuniculus; assay: Inhibition of Spanish V-line rabbit liver alpha-amylase using starch as substrate assessed per mg protein at 32 uM by Lineweaver-Burk plot ( RVb = 9.0 +/- 0.8 10^-3 uM/min/mg protein )
[40] = organism: Oryctolagus cuniculus; assay: Inhibition of Spanish V-line rabbit liver alpha-amylase using starch as substrate assessed per mg protein at 64 uM by Lineweaver-Burk plot ( RVb = 9.0 +/- 0.8 10^-3 uM/min/mg protein )
[41] = organism: Oryctolagus cuniculus; assay: Inhibition of Spanish V-line rabbit liver alpha-glucosidase using maltose as substrate assessed per mg protein at 16 uM by Lineweaver-Burk plot ( RVb = 55 +/- 5 10^-3 uM/min/mg protein )
[42] = organism: Oryctolagus cuniculus; assay: Inhibition of Spanish V-line rabbit liver alpha-glucosidase using maltose as substrate assessed per mg protein at 32 uM by Lineweaver-Burk plot ( RVb = 55 +/- 5 10^-3 uM/min/mg protein )
[43] = organism: Oryctolagus cuniculus; assay: Inhibition of Spanish V-line rabbit liver alpha-glucosidase using maltose as substrate assessed per mg protein at 48 uM by Lineweaver-Burk plot ( RVb = 55 +/- 5 10^-3 uM/min/mg protein )
[44] = organism: Oryctolagus cuniculus; assay: Inhibition of Spanish V-line rabbit liver alpha-glucosidase using maltose as substrate assessed per mg protein at 64 uM by Lineweaver-Burk plot ( RVb = 55 +/- 5 10^-3 uM/min/mg protein )
[45] = Competitive inhibition of Spanish V-line rabbit liver alpha-glucosidase using maltose as substrate by Dixon plot analysis; design: species or system Oryctolagus cuniculus
[46] = organism: Oryctolagus cuniculus; assay: Competitive inhibition of Spanish V-line rabbit liver alpha-glucosidase using maltose as substrate
[47] = organism: Oryctolagus cuniculus; assay: Inhibition of Spanish V-line rabbit liver alpha-amylase using starch as substrate
[48] = organism: Oryctolagus cuniculus; assay: Inhibition of Spanish V-line rabbit liver alpha-glucosidase using maltose as substrate assessed per mg protein at 16 uM by Lineweaver-Burk plot ( RVb = 53 +/- 5 10^-3 uM/min/mg protein )
[49] = organism: Oryctolagus cuniculus; assay: Inhibition of Spanish V-line rabbit liver alpha-glucosidase using maltose as substrate assessed per mg protein at 32 uM by Lineweaver-Burk plot ( RVb = 53 +/- 5 10^-3 uM/min/mg protein )
[50] = organism: Oryctolagus cuniculus; assay: Inhibition of Spanish V-line rabbit liver alpha-glucosidase using maltose as substrate assessed per mg protein at 64 uM by Lineweaver-Burk plot ( RVb = 53 +/- 5 10^-3 uM/min/mg protein )
[51] = organism: Oryctolagus cuniculus; assay: Inhibition of Spanish V-line rabbit liver alpha-glucosidase using maltose as substrate assessed per mg protein at 48 uM by Lineweaver-Burk plot ( RVb = 53 +/- 5 10^-3 uM/min/mg protein )
[52] = Competitive inhibition of Spanish V-line rabbit liver alpha-glucosidase using maltose as substrate by Lineweaver-Burk plot analysis; design: species or system Oryctolagus cuniculus

Row | Compound | LD50 at 24 h [1] [mg/kg] | Activity [2] [µM/min] | Activity [3] [µM/min] | Activity [4] [µM/min] | Activity [5] [µM/min] | Activity [6] [µM/min] | Activity [7] [µM/min] | Activity [8] [µM/min] | Activity [9] [µM/min] | Activity [10] [µM/min] | Activity [11] [µM/min] | Activity [12] [µM/min] | Activity [13] [µM/min] | Activity [14] [µM/min] | inhibition (INH) [15] [%] | Activity [16] [µM/min] | inhibition [17] | inhibition [18] | inhibition (INH) [19] [%] | IC50 [20] [µM] | other results
1 | S=C1N=C(c2ccccc2)C(c2ccccc2)=N1 | 204 | 17.6 | 15.2 | 14.3 | 15.6 | 16.9 | 19.3 | 3.8 | 3.1 | 2.3 | 2.9 | 3.3 | 4.3 | 4.4 | 62 | 23.5 | Dose-dependent effect | Dose-dependent effect | 53 | 56 | Vmax [21]: 41 nM/min; IC50 [22]: 47 µM; inhibition [23]: Active; inhibition [24]: Active; Vmax [25]: 33 nM/min; Vmax [26]: 27 nM/min; Vmax [27]: 2.4 nM/min; Vmax [28]: 8.3 nM/min; Vmax [29]: 7.1 nM/min; Vmax [30]: 6.3 nM/min; Vmax [31]: 5.5 nM/min; Ki [32]: 43 µM; Ki [33]: 35 µM; Ki [34]: 63 µM; Ki [35]: 60 µM; inhibition [36]: Dose-dependent effect; inhibition [37]: Dose-dependent effect
2 | Oc1ccccc1-c1nnc(S)n1-c1ccccc1 | 155 | 15.6 | 14.2 | 13.1 | 14.2 | 15.6 | 16.2 | 4.8 | 4.4 | 4.3 | 4.4 | 4.6 | 4.8 | 5.1 | 57 | 18.8 | Dose-dependent effect | Dose-dependent effect | 27 | 105 | inhibition [23]: Active; inhibition [24]: Active; Vmax [38]: 9.3 nM/min; Vmax [39]: 9.2 nM/min; Vmax [40]: 8.9 nM/min; Vmax [31]: 9.5 nM/min; Vmax [41]: 16.6 nM/min; Vmax [42]: 15.6 nM/min; Vmax [43]: 12.5 nM/min; Vmax [44]: 10.2 nM/min; Ki [45]: 50.8 µM; inhibition [46]: Dose-dependent effect; inhibition [47]: Dose-dependent effect
3 | Sc1nnc(-c2ccccc2)n1-c1ccccc1 | 107 | 18.6 | 16.7 | 15.4 | 16.1 | 18.5 | 19.8 | 4.5 | 4.1 | 3.7 | 4 | 4.3 | 4.6 | 4.7 | 50 | 19.9 | Dose-dependent effect | Dose-dependent effect | 46 | 67 | IC50 [22]: 73 µM; inhibition [23]: Active; inhibition [24]: Active; Vmax [48]: 20 nM/min; Vmax [49]: 18 nM/min; Vmax [50]: 12.5 nM/min; Vmax [38]: 8 nM/min; Vmax [39]: 6.3 nM/min; Vmax [40]: 5.3 nM/min; Vmax [51]: 16.6 nM/min; Vmax [31]: 5.4 nM/min; Ki [45]: 38 µM; Ki [52]: 42 µM; Ki [34]: 72 µM; Ki [35]: 65 µM; inhibition [46]: Dose-dependent effect; inhibition [37]: Dose-dependent effect
